Target: PD-1/PD-L1 (Homo sapiens, UniProt Q9NZQ7)
Assay: TR-FRET PD-1/PD-L1 binding inhibition at the molecular level (free proteins)
Details: Tag1-PD-L1 and Tag2-PD-1 proteins, twelve concentrations from 200 nM, 2 hours at room temperature, read-out: FRET assay (IC50)
Method in brief: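 HTRF read-out at 665/620 nm after 2 h at room temperature. Detection used anti-Tag1 Eu cryptate plus anti-Tag2 XL665 antibodies. Tagged PD-L1 and PD-1 proteins were pre-mixed with compound across twelve […] 1:2 dilutions starting at 200 nM.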

Chain of PD-1/PD-L1 (Q9NZQ7 19-238 limits assumed): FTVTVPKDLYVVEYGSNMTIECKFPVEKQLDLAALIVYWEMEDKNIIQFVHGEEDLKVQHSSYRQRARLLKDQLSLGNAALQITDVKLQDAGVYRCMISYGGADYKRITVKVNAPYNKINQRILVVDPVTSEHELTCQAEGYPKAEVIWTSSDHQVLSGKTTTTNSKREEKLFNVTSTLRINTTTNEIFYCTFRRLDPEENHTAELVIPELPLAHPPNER

| SMILES | IC50 |
| --- | --- |
| Cc1c(NC(=O)c2ccc(CNCCO)cn2)cccc1-c1cccc(NC(=O)c2cc3n(n2)CCCC3N2CCC(O)CC2)c1C (stereo not shown) [Compound 78, N-(3'-(5-(((2-hydroxyethyl)amino)methyl)picolinamido)-2,2'-dimethyl-[1,1'-biphenyl]-3-yl)-4-(4-hydroxypiperidin-1-yl)-4,5,6,7-tetrahydropyrazolo[1,5-a]pyridine-2-carboxamide] | < 10 nM |
| N#Cc1cc(CN2CC[C@@H](C(=O)O)C2)cc2nc(-c3cccc(-c4cccc(NC(=O)c5cc6n(n5)CCCC6O)c4Cl)c3Cl)oc12 (stereo partly drawn) [Compound 67, (3R)-1-((7-cyano-2-(2,2'-dichloro-3'-(4-hydroxy-4,5,6,7-tetrahydropyrazolo[1,5-a]pyridine-2-carboxamido)-[1,1'-biphenyl]-3-yl)benzo[d]oxazol-5-yl)methyl)pyrrolidine-3-carboxylic acid] | < 10 nM |
| CC(=O)NCCNC1CCCn2nc(C(=O)Nc3cccc(-c4cccc(NC(=O)c5ccc(CNCCO)cn5)c4C)c3C)cc21 (stereo not shown) [Compound 72, 4-((2-acetamidoethyl)amino)-N-(3'-(5-(((2-hydroxyethyl)amino)methyl)picolinamido)-2,2'-dimethyl-[1,1'-biphenyl]-3-yl)-4,5,6,7-tetrahydropyrazolo[1,5-a]pyridine-2-carboxamide] | < 10 nM |
| Cc1c(Nc2nccc3cc(CN4CC[C@@H](O)C4)cnc23)cccc1-c1cccc(NC(=O)c2cc3n(n2)CCCC3N2CC[C@@H](C(=O)O)C2)c1Cl (stereo partly drawn) [Compound 33, (3R)-1-(2-((2-chloro-3'-((3-(((R)-3-hydroxypyrrolidin-1-yl)methyl)-1,7-naphthyridin-8-yl)amino)-2'-methyl-[1,1'-biphenyl]-3-yl)carbamoyl)-4,5,6,7-tetrahydropyrazolo[1,5-a]pyridin-4-yl)pyrrolidine-3-carboxylic acid] | < 10 nM |
| Cc1c(NC(=O)c2cc3n(n2)CCCC3NC[C@@H]2CCC(=O)N2)cccc1-c1cccc(-c2nc3cc(CN4CC[C@@H](C(=O)O)C4)cc(C#N)c3o2)c1C (stereo partly drawn) [Compound 65, (3R)-1-((7-cyano-2-(2,2'-dimethyl-3'-(4-((((S)-5-oxopyrrolidin-2-yl)methyl)amino)-4,5,6,7-tetrahydropyrazolo[1,5-a]pyridine-2-carboxamido)-[1,1'-biphenyl]-3-yl)benzo[d]oxazol-5-yl)methyl)pyrrolidine-3-carboxylic acid] | < 10 nM |
| Cc1c(NC(=O)c2cc3n(n2)CCCC3NCCO)cccc1-c1cccc(Nc2nccc3cc(CN4CC[C@@H](O)C4)cnc23)c1Cl (stereo partly drawn) [Compound 37, N-(2'-chloro-3'-((3-(((R)-3-hydroxypyrrolidin-1-yl)methyl)-1,7-naphthyridin-8-yl)amino)-2-methyl-[1,1'-biphenyl]-3-yl)-4-((2-hydroxyethyl)amino)-4,5,6,7-tetrahydropyrazolo[1,5-a]pyridine-2-carboxamide] | < 10 nM |
| Cc1c(NC(=O)c2ccc(CN3CC[C@@H](O)C3)cn2)cccc1-c1cccc(NC(=O)c2cc3n(n2)CCCC3NCCO)c1C (stereo partly drawn) [Compound 91, 4-((2-hydroxyethyl)amino)-N-(3'-(5-(((R)-3-hydroxypyrrolidin-1-yl)methyl)picolinamido)-2,2'-dimethyl-[1,1'-biphenyl]-3-yl)-4,5,6,7-tetrahydropyrazolo[1,5-a]pyridine-2-carboxamide] | < 10 nM |
| Cc1c(NC(=O)c2ccc(CN3CC[C@@H](O)C3)cn2)cccc1-c1cccc(NC(=O)c2cc3n(n2)CCC[C@H]3N2CCC[C@@H]2CO)c1C [Compound 310-1] | < 10 nM |

Second part, the molecule after the results:

| IC50 | SMILES |
| --- | --- |
| < 10 nM | O=C(Nc1cccc(-c2cccc(Nc3nccc4nccnc34)c2Cl)c1Cl)c1cc2n(n1)CCC[C@@H]2N1CC(C(=O)O)C1 [Compound 264, (S)-1-(2-((2,2'-dichloro-3'-(pyrido[3,4-b]pyrazin-5-ylamino)-[1,1'-biphenyl]-3-yl)carbamoyl)-4,5,6,7-tetrahydropyrazolo[1,5-a]pyridin-4-yl)azetidine-3-carboxylic acid] |
| < 10 nM | O=C(Nc1cccc(-c2cccc(NC(=O)c3cc4n(n3)CCC[C@@H]4NCCO)c2Cl)c1Cl)c1cc2n(n1)CCC[C@@H]2NCCO [Compound 316, (4S,4'S)-N,N'-(2,2'-dichloro-[1,1'-biphenyl]-3,3'-diyl)bis(4-((2-hydroxyethyl)amino)-4,5,6,7-tetrahydropyrazolo[1,5-a]pyridine-2-carboxamide)] |
| < 10 nM | Cc1c(NC(=O)c2cc3n(n2)CCCC3N2CC[C@@H](O)C2)cccc1-c1cccc(NC(=O)c2nc3c(s2)CN(C)CC3)c1C (stereo partly drawn) [Compound 150, N-(3'-(4-((R)-3-hydroxypyrrolidin-1-yl)-4,5,6,7-tetrahydropyrazolo[1,5-a]pyridine-2-carboxamido)-2,2'-dimethyl-[1,1'-biphenyl]-3-yl)-5-methyl-4,5,6,7-tetrahydrothiazolo[5,4-c]pyridine-2-carboxamide] |
| 10 to 100 nM | CN[C@H]1CCCn2nc(C(=O)Nc3cccc(-c4cccc(Nc5nc(C(F)(F)F)nc6cc(CN7CC[C@@H](O)C7)cnc56)c4Cl)c3Cl)cc21 [Compound 352, (S)-N-(2,2'-dichloro-3'-((7-(((R)-3-hydroxypyrrolidin-1-yl)methyl)-2-(trifluoromethyl)pyrido[3,2-d]pyrimidin-4-yl)amino)-[1,1'-biphenyl]-3-yl)-4-(methylamino)-4,5,6,7-tetrahydropyrazolo[1,5-a]pyridine-2-carboxamide] |
| < 10 nM | O=C(Nc1cccc(-c2cccc(NC(=O)c3ncc(CN4CC[C@@H](O)C4)cc3F)c2Cl)c1Cl)c1cc2n(n1)CCCC2N1CC[C@@H](C(=O)O)C1 (stereo partly drawn) [Compound 205, (3R)-1-(2-((2,2'-dichloro-3'-(3-fluoro-5-(((R)-3-hydroxypyrrolidin-1-yl)methyl)picolinamido)-[1,1'-biphenyl]-3-yl)carbamoyl)-4,5,6,7-tetrahydropyrazolo[1,5-a]pyridin-4-yl)pyrrolidine-3-carboxylic acid] |
| 10 to 100 nM | O=C(Nc1cccc(-c2cccc(Nc3nc(C(F)F)nc4cc(CN5CC[C@@H](O)C5)cnc34)c2Cl)c1Cl)c1cc2n(n1)CCCC2N1CCC(O)CC1 (stereo partly drawn) [Compound 144, N-(2,2'-dichloro-3'-((2-(difluoromethyl)-7-(((R)-3-hydroxypyrrolidin-1-yl)methyl)pyrido[3,2-d]pyrimidin-4-yl)amino)-[1,1'-biphenyl]-3-yl)-4-(4-hydroxypiperidin-1-yl)-4,5,6,7-tetrahydropyrazolo[1,5-a]pyridine-2-carboxamide] |
| 10 to 100 nM | CC(C)(N[C@@H]1CCCn2nc(C(=O)Nc3cccc(-c4cccc(Nc5nc(C(F)F)nc6cc(CN7CC[C@@H](O)C7)cnc56)c4Cl)c3Cl)cc21)C(=O)O [Compound 259, 2-(((R)-2-((2,2'-dichloro-3'-((2-(difluoromethyl)-7-(((R)-3-hydroxypyrrolidin-1-yl)methyl)pyrido[3,2-d]pyrimidin-4-yl)amino)-[1,1'-biphenyl]-3-yl)carbamoyl)-4,5,6,7-tetrahydropyrazolo[1,5-a]pyridin-4-yl)amino)-2-methylpropanoic acid] |
| < 10 nM | Cc1c(NC(=O)c2ccc(CN3CC[C@@H](O)C3)cn2)cccc1-c1cccc(NC(=O)c2cc3n(n2)CCCC3N2CCC(C(=O)O)CC2)c1C (stereo partly drawn) [Compound 98, 1-(2-((3'-(5-(((R)-3-hydroxypyrrolidin-1-yl)methyl)picolinamido)-2,2'-dimethyl-[1,1'-biphenyl]-3-yl)carbamoyl)-4,5,6,7-tetrahydropyrazolo[1,5-a]pyridin-4-yl)piperidine-4-carboxylic acid] |
